Source: patent publication US20250171438A1 (Agios Pharmaceuticals, Inc., priority 2022, published 2025)

biological target: T1, human PAH with the R408W mutation (Homo sapiens, UniProt P00439, R408W); assay: Cell Based Phenylalanine Flux Assay; conditions: A375 cells expressing human R408W PAH; 24 hrs with compound; 13C-Tyrosine by LC-MS; average where tested multiple times; read-out: AC50
T1 construct: expressed in transfected cells
T1 sequence (P00439 1-452 R408W): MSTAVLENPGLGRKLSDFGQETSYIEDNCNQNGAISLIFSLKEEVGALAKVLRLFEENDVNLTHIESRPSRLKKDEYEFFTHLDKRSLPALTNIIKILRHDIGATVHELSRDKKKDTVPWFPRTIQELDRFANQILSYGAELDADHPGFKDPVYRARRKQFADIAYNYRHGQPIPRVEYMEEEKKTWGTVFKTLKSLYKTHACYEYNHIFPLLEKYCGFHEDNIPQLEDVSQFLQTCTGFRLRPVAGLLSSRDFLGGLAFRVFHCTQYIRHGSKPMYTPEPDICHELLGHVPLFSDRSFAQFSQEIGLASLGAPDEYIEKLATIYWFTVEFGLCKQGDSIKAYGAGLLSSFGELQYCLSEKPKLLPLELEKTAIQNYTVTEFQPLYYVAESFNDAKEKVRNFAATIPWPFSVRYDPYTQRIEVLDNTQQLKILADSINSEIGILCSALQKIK

AC50 [µM]	Structure (SMILES)
> 5	O=C(Cc1cnco1)N1CCc2[nH]cnc2[C@@H]1c1nc2ccccc2s1 (single isomer, unassigned)
> 5	Cc1nnc(CC(=O)N2CCc3[nH]cnc3[C@@H]2c2nc3c(F)cccc3s2)s1 (single isomer, unassigned)
> 5	Cc1noc(C(=O)N2CCc3[nH]cnc3[C@@H]2c2nc3ccccc3s2)n1 (single isomer, unassigned)
> 5	O=C(c1cnco1)N1CCc2[nH]cnc2[C@@H]1c1nc2cc(F)ccc2s1 (single isomer, unassigned)
> 5	O=C(c1cnn2c(Br)cccc12)N1CCc2[nH]cnc2[C@@H]1c1nc2ccccc2[nH]1 (single isomer, unassigned)
> 5	Cc1nnc(CC(=O)N2CCc3[nH]cnc3[C@H]2c2nc3ccccc3[nH]2)o1 (single isomer, unassigned)
1 to 5	Cc1nnc(CC(=O)N2CCc3[nH]cnc3[C@H]2c2nc3ccccc3s2)s1 (single isomer, unassigned)
1 to 5	CC(=O)N1CCc2[nH]cnc2[C@H]1c1nc2ccccc2s1 (single isomer, unassigned)
1 to 5	O=C(Cc1cscn1)N1CCc2[nH]cnc2[C@H]1c1nc2ccccc2s1 (single isomer, unassigned)
1 to 5	O=C(Cc1nncs1)N1CCc2[nH]cnc2[C@H]1c1nc2c(F)cccc2s1 (single isomer, unassigned)
1 to 5	Cc1nnc(N2CCc3[nH]cnc3[C@H]2c2nc3ccccc3[nH]2)o1 (single isomer, unassigned)
1 to 5	O=C(C1CN(CC(F)(F)F)C1)N1CCc2[nH]cnc2[C@H]1c1nc2ccccc2s1 (single isomer, unassigned)
> 5	Cc1nnc(N2CC(C(=O)N3CCc4[nH]cnc4[C@H]3c3nc4ccccc4s3)C2)o1 (single isomer, unassigned)
1 to 5	Cc1nc(CCC2CC2)oc1C(=O)N1CCCc2[nH]cnc2[C@H]1c1nc2ccccc2s1 (single isomer, unassigned)
1 to 5	Cn1cc(-c2cccc(C(=O)N3CCc4[nH]cnc4[C@H]3c3nc4ccccc4s3)c2)cn1 (single isomer, unassigned)
1 to 5	O=C(N1CC[C@@H](c2ccccc2)C1)N1CCc2[nH]cnc2[C@H]1c1nc2ccccc2s1 (single isomer, unassigned)
1 to 5	c1ccc2sc([C@@H]3c4nc[nH]c4CCN3CC3CC3)nc2c1 (single isomer, unassigned)
1 to 5	O=C(c1cc2ccccn2c1)N1CCc2[nH]cnc2[C@H]1c1nc2ccccc2s1 (single isomer, unassigned)
1 to 5	Cc1ncc(C(=O)N2CCc3[nH]cnc3[C@H]2c2nc3c(F)cccc3s2)o1 (single isomer, unassigned)
1 to 5	O=C(c1nccs1)N1CCc2[nH]cnc2[C@H]1c1nc2ccc(Cl)cc2s1 (single isomer, unassigned)
1 to 5	O=C(c1cnn2cc(Cl)ccc12)N1CCc2[nH]cnc2[C@H]1c1nc2ccc(Br)cc2[nH]1 (single isomer, unassigned)

Structure (SMILES)	AC50 [µM]
COCCNc1nnc(C(=O)N2CCc3[nH]cnc3[C@@H]2c2nc3ccccc3s2)o1 (single isomer, unassigned)	> 5
O=C(c1ncn2ccccc12)N1CCc2[nH]cnc2[C@@H]1c1nc2ccc(F)cc2s1 (single isomer, unassigned)	> 5
CN(C)CCCc1nnc(C(=O)N2CCc3[nH]cnc3[C@@H]2c2nc3ccccc3s2)o1 (single isomer, unassigned)	> 5
O=C(c1cnn2cccc(F)c12)N1CCc2[nH]cnc2[C@H]1c1nc2cc(F)ccc2s1 (single isomer, unassigned)	1 to 5
O=C(c1cnn2ccccc12)N1CCc2[nH]cnc2[C@H]1c1nc2ccc(Cl)cc2s1 (single isomer, unassigned)	1 to 5
CN(C)CCCc1nnc(C(=O)N2CCc3[nH]cnc3[C@H]2c2nc3ccccc3s2)o1 (single isomer, unassigned)	1 to 5
Cc1nc(-c2ccccn2)oc1C(=O)N1CC2(CC2)c2[nH]cnc2[C@H]1c1nc2ccccc2s1 (single isomer, unassigned)	1 to 5
